This note sets out measurements from patent publication US9682991B2, “Tricyclic compounds for use as kinase inhibitors” (FUNDACIÓN CENTRO NACIONAL DE INVESTIGACIONES ONCOLOGICAS …, priority 2009, dated 2017).

Test [1] has as its system Mantle cell lymphoma cells. The experiment in a line: MTT in vitro cell proliferation / combination assay, mantle cell lymphoma (cell line not given). The format is cell-based. The conditions noted are these: Mantle cell lymphoma (cell line cell empty). As for the experimental part: (§1) Proliferation assays (MTT) were performed as described in: • “Chemical interrogation of FOXO3a nuclear translocation identifies potent and selective inhibitors of phosphoinositide 3-kinases”, W. Link, J. Oyarzabal, B. G. Serelde, M. I. Albarran, O. Rabal, A. Cebria, P. Alfonso, J. Fominaya, O. Renner, S. Peregrina, D. Soilan, P. A. Ceballos, A. I. Hernandez, M. Lorenzo, P. Pevarello, T. G. Granda, G. Kurz, A. Carnero, J. R. Bischoff, J. Biol. Chem. 284 (2009) 28392-28400. Combination Assay
(§2) A combination index score is calculated by the Chou and Talalay method (CalcuSyn software, Biosoft). The strength of synergy is scored using the ranking system Chou and Talalay: CI less than 0.8 indicates synergy, CI between 0.8 and 1.2 indicates additivity and CI greater than 1.2 indicates antagonism.
(§3) The EC50 values of representative combinations were also calculated. The individually measured EC50 values of the chemotherapeutic agent and the example compounds are compared to the EC50 value of the combination. The cell lines are characterised by tumor type.
(§4) Combination assays were performed as described in: • “Pim 1 kinase inhibitor ETP-45299 suppresses cellular proliferation and synergizes with PI3K inhibition”. Blanco-Aparicio, Carmen; Collazo, Ana Maria Garcia; Oyarzabal, Julen; Leal, Juan F.; Albaran, Maria Isabel; Lima, Francisco Ramos; Pequeno, Belen; Ajenjo, Nuria; Becerra, Mercedes; Alfonso, Patricia; Reymundo, Maria Isabel; Palacios, Irene; Mateos, Genoveva; Quinones, Helena; Corrionero, Ana; Carnero, Amancio; Pevarello, Paolo; Lopez, Ana Rodriguez; Fominaya, Jesus; Pastor, Joaquin; Bischoff, James R. Cancer Letters (Shannon, Ireland) 2011, 300(2), 145-153.

For test [2], the target named is PIM-1 (Homo sapiens (Human), UniProt P11309). Put plainly: PIM-1 biochemical assay (ADP Hunter).
Test [3] deals with MV4:11 cells (leukemia, AML). The experiment in a line: MTT in vitro cell proliferation / combination assay, MV4:11. The conditions noted are these: for EC50: Homo sapiens, MV4:11, example compound alone. Type of test: cell-based. As for the experimental part:
as §2
(§5) The EC50 values of representative combinations were also calculated. The individually measured EC50 values of the chemotherapeutic agent and the example compounds are compared to the EC50 value of the combination. The cell lines are characterised by tumor type. […]

Test [4] deals with SKMel19 cells (melanoma). Put plainly: MTT in vitro cell proliferation / combination assay, SKMel19. The format is cell-based. The protocol: as §2, §5
For test [5], the system named is Bad S112 phosphorylation in H1299 cells overexpressing Pim1 (H1299Pim1). The experiment in a line: Bad S112 phosphorylation inhibition assay (In Cell ELISA). Type of test: cell-based. The conditions noted are these: Homo sapiens, NCI-H1299, semi-quantitative, read-out: EC50 BadP ELISA H1299 Pim1. As for the experimental part:
Efficacy of compounds of the invention on the inhibition of Bad phosphorylation was measured by an In Cell ELISA. EC50 values were established for the tested compounds.
Cells: H1299 cells overexpressing Pim1 (H1299Pim1)
Cells were seeded in 15000 cells per 200 μl per well into 96-well plates and incubated for 16 h at 37° C., 5% CO2. On day two, nine serial 1:2 compound dilutions were made in DMSO in a 96-well plate. The compounds were added to duplicate wells in 96-well cell plates using a FX BECKMAN robot (Beckman Coulter) and incubated at 37° C. with CO2 atmosphere. After 4 hours, relative levels of Bad S112 phosphorylation were measured in Cell ELISA using SuperSignal ELISA Femto substrate (Pierce) and read on VICTOR (Perkin Elmer). EC50 values were calculated using ActivityBase from IDBS.
A general note: An ELISA detects its analyte on a solid surface through an enzyme-linked reagent.

Test [6] addresses PIM-3 (Homo sapiens (Human), UniProt Q86V86). The experiment in a line: PIM-3 biochemical assay (ADP Hunter). The conditions noted are these: semi-quantitative; read-out: PIM3 IC50.
Test [7] addresses PIM-2 (Homo sapiens (Human), UniProt Q9P1W9). Put plainly: PIM-2 biochemical assay (ADP Hunter). The conditions noted are these: semi-quantitative; read-out: PIM2 IC50. An excerpt:
The biochemical assay to measure PIM-2 activity relies on the ADP Hunter assay kit (DiscoveRx Corp., Cat. #90-0077), that determines the amount of ADP as direct product of the kinase enzyme activity.

Test [8] has as its system HTC116 cells (colon carcinoma). Put plainly: MTT in vitro cell proliferation / combination assay, HTC116. The format is cell-based. To be noted: HTC116, chemotherapeutic alone; read-out: Chemoth EC50. As for the experimental part: as §2, §3
Test [9] concerns DU145 cells (prostate). The experiment in a line: MTT in vitro cell proliferation / combination assay, DU145. To be noted: Homo sapiens, DU-145; DU145, chemotherapeutic alone; read-out: Chemoth EC50. The format is cell-based. As for the experimental part:
as §1, §2, §3, §4

Test [10] deals with Jeko-1 cells (Mantle cell lymphoma). Put plainly: MTT in vitro cell proliferation / combination assay, Jeko-1. To be noted: Homo sapiens; Jeko-1, chemotherapeutic alone; read-out: Chemoth EC50. Type of test: cell-based. The protocol:
as §2, §3
Blanco-Aparicio, Carmen; Collazo, Ana Maria Garcia; Oyarzabal, Julen; Leal, Juan F.; Albaran, Maria Isabel; Lima, Francisco Ramos; Pequeno, Belen; Ajenjo, Nuria; Becerra, Mercedes; Alfonso, Patricia; Reymundo, Maria Isabel; Palacios, Irene; Mateos, Genoveva; Quinones, Helena; Corrionero, Ana; Carnero, Amancio; Pevarello, Paolo; Lopez, Ana Rodriguez; Fominaya, Jesus; Pastor, Joaquin; Bischoff, James R. Cancer Letters (Shannon, Ireland) 2011, 300(2), 145-153.

The subject of test [11] is MiaPaca-2 cells (pancreas). The experiment in a line: MTT in vitro cell proliferation / combination assay, MiaPaca-2. Type of test: cell-based. To be noted: Homo sapiens, MIA PaCa-2; MiaPaca-2, chemotherapeutic alone; read-out: Chemoth EC50. As for the experimental part: as §1, §2, §3, §4
[12] abbreviates: read-out: PIM1 IC50, semi-quantitative.
The mark [13] stands for this setting: MV4:11, combination with GDC-0941.
[14] abbreviates: SKMel19, combination with GDC-0879.
Setting [15] is: SKMel19, combination with PD-0332991.
Setting [16] is: MV4:11, combination with GDC-0879.
Setting [17] is: MV4:11, combination with PD-0332991.

SMILES strings stand for the structures. Like-named read-outs stand apart in the source and are kept apart here. Bounds are passed on as bounds.

PIM-2, sequence (Q9P1W9 whole entry): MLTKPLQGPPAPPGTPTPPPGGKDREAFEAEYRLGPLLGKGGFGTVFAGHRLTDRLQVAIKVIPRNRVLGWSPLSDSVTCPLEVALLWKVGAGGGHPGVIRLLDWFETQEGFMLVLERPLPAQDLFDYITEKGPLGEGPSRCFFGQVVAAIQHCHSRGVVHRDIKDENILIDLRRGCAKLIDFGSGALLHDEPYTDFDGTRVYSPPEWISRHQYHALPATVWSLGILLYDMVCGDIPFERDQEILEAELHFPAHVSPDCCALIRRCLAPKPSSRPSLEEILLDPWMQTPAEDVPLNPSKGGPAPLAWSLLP
PIM-1, sequence (P11309 whole entry): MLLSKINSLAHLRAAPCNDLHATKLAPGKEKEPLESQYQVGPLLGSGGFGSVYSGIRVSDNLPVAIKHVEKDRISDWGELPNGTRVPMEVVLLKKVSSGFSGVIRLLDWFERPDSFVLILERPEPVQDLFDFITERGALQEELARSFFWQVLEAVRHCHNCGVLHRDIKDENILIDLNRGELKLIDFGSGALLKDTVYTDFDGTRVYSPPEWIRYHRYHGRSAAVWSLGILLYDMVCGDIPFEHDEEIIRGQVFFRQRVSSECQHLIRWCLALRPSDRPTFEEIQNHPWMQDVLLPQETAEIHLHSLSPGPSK

For orientation: EC50 means the concentration that produces a half-maximal response. By IC50 is commonly meant the concentration at which inhibition is half-maximal. Consider `CN1CCC(CNc2nn3c(-c4cccc(OC(F)(F)F)c4)nnc3c3c2N(C)CCO3)CC1` [Example 16, (1-Methyl-piperidin-4-ylmethyl)-[6-methyl-3-(3-trifluoromethoxy-phenyl)-7,8-dihydro-6H-9-oxa-1,2,3a,4,6-pentaaza-cyclopenta[a]naphthalen-5-yl]-amine], for which the “Combination Index (CI)” value in [1] (combination with lapatinib) is recorded as 0.289; in test [3] (setting [13]), 0.585. In addition, the values for the Synergy result in test [1] (combination with lapatinib) and in test [3] (setting [13]) were “+++ (0.1<CI<0.3)” and “++ (0.3<C1<0.7)”, respectively. In addition, the concentration giving a half-maximal response (EC50) in [1] (example compound alone, read-out: Example EC50) stood at 10000 nM; in [3], 5000 nM. In addition, the IC50 in [2] (setting [12]) was below 100 nM.

Regarding `CN1CCOc2c1c(NCC1CCNCC1)nn1c(-c3cccc(OC(F)(F)F)c3)nnc21` [Example 56, [6-Methyl-3-(3-trifluoromethoxy-phenyl)-7,8-dihydro-6H-9-oxa-1,2,3a,4,6-pentaaza-cyclopenta[a]naphthalen-5-yl]-piperidin-4-ylmethyl-amine], the EC50 worked out at 6000 nM in test [4] (Homo sapiens, SK-MEL19, SKMel19, example compound alone) and 500 nM in test [3]. The “Combination Index (CI)” value is recorded as 0.516 in [4] (setting [14]); 0.568 in test [4] (setting [15]); 0.604 in test [3] (setting [16]); 0.024 in [3] (setting [13]); 0.309 in [3] (setting [17]). Further, the Synergy result in test [4] (setting [14]) was “++ (0.3<C1<0.7)”; in [4] (setting [15]), “++ (0.3<C1<0.7)”; in [3] (setting [16]), “++ (0.3<C1<0.7)”; in test [3] (setting [13]), “++++ (CI<0.1)”; in test [3] (setting [17]), “++ (0.3<C1<0.7)”. For the same compound, the 50% inhibitory concentration (IC50) in test [2] (setting [12]) is below 100 nM.

For the compound `CNC1CCN(c2nn3c(-c4cccc(OC(F)(F)F)c4)nnc3c3c2N(C)CCO3)CC1` [Example 62, Methyl-{1-[6-methyl-3-(3-trifluoromethoxy-phenyl)-7,8-dihydro-6H-9-oxa-1,2,3a,4,6-pentaaza-cyclopenta[a]naphthalen-5-yl]-piperidin-4-yl}-amine], the IC50 in test [2] (setting [12]) is below 100 nM; in test [6], below 100 nM; in [7], 100 to 1000 nM. The EC50 in test [5] was below 250 nM.

On to `CN1CCOc2c(N3CCC4(CC3)CC(N)C4)nn3c(-c4cccc(OC(F)(F)F)c4)nnc3c21` [Example 66, 7-[9-Methyl-3-(3-trifluoromethoxy-phenyl)-8,9-dihydro-7H-6-oxa-1,2,3a,4,9-pentaaza-cyclopenta[a]naphthalen-5-yl]-7-aza-spiro[3.5]non-2-ylamine], for which the 50% inhibitory concentration (IC50) in test [2] (setting [12]) was below 100 nM; in test [6], 100 to 1000 nM; in [7], above 1000 nM. In addition, in [5], the 50% effective concentration (EC50) fell in the range of 1000 to 10000 nM.

Take `COc1ccc(-c2nnc3c4c(c(NCc5ccc(F)cc5)nn23)N(C)CCO4)cc1` [Example 81, (4-Fluoro-benzyl)-[3-(4-methoxy-phenyl)-6-methyl-7,8-dihydro-6H-9-oxa-1,2,3a,4,6-pentaaza-cyclopenta[a]naphthalen-5-yl]-amine]: the values for the half-inhibitory concentration (IC50) in [2] (setting [12]), in [6] and in [7] were below 100 nM, 100 to 1000 nM and above 1000 nM, respectively. The EC50 in [5] was in the range of 1000 to 10000 nM.

Take `CC(C)NCC1CCN(c2nn3c(-c4cccc(OC(F)(F)F)c4)nnc3c3c2OCCN3C)CC1` [Example 86, Isopropyl-{1-[9-methyl-3-(3-trifluoromethoxy-phenyl)-8,9-dihydro-7H-6-oxa-1,2,3a,4,9-pentaaza-cyclopenta[a]naphthalen-5-yl]-piperidin-4-ylmethyl}-amine]: the IC50 in [2] was 100 to 1000 nM; in test [6] it was 100 to 1000 nM; in test [7] it was above 1000 nM. The EC50 in test [5] lay in the range of 1000 to 10000 nM.

Turning to `FC(F)(F)Oc1cccc(-c2nnc3c4c(c(N5CCCCC5)nn23)OCCO4)c1` [Example 101, 5-Piperidin-1-yl-3-(3-trifluoromethoxy-phenyl)-7,8-dihydro-6,9-dioxa-1,2,3a,4-tetraaza-cyclopenta[a]naphthalene], the results for the IC50 in test [2] (setting [12]), in [6] and in [7] were below 100 nM, 100 to 1000 nM and 100 to 1000 nM, respectively. The EC50 in test [5] was in the range of 1000 to 10000 nM.

Consider `O=C(NOC[C@H](O)CO)c1ccc(F)c(F)c1Nc1ccc(I)cc1F` [PD-0325901, (R)—N-(2,3-dihydroxypropoxy)-3,4-difluoro-2-(2-fluoro-4-iodophenylamino)benz-amide, reference compound], for which the EC50 in test [8] was determined as 1250 nM.

Take `CC(=O)O[C@@]12CO[C@@H]1C[C@H](O)[C@@]1(C)C(=O)[C@H](O)C3=C(C)[C@@H](OC(=O)[C@H](O)[C@@H](NC(=O)OC(C)(C)C)c4ccccc4)C[C@](O)([C@@H](OC(=O)c4ccccc4)[C@H]21)C3(C)C` [Taxotere, (2R,3S)—N-carboxy-3-phenylisoserine, N-tert-butyl ester, 13-ester with 5,20-epoxy-1,2,4,7,10,13-hexahydroxytax-11-en-9-one 4-acetate 2-benzoate, trihydrate, reference compound]: the EC50 in test [9] was 25 nM.

Turning to `CS(=O)(=O)CCNCc1ccc(-c2ccc3ncnc(Nc4ccc(OCc5cccc(F)c5)c(Cl)c4)c3c2)o1` [lapatinib, N-(3-chloro-4-(3-fluorobenzyloxy)phenyl)-6-(5-((2-(methylsulfonyl)ethylamino)-methyl)furan-2-yl)quinazolin-4-amine, reference compound], the half-maximal effective concentration (EC50) amounted to 5000 nM in test [10]; 5000 nM in [1] (chemotherapeutic alone, read-out: Chemoth EC50); 20000 nM in test [11]; 10000 nM in [8].
